Results: patent publication US11752111B2, “Use of cannabidivarin in the treatment of autism spectrum disorder, associated disorders and schizophrenia” (GW Research Limited, priority 2016, dated 2023)

What was measured:
[1] = test system: PCP-treated rats; assay: Novel object recognition test, sub-chronic PCP model of schizophrenia; format: in vivo, rat; settings: risperidone 0.1 mg/kg i.p. 60 min prior to testing
Description: (§1) Female hooded-Lister rats were used for this experiment. Rats were housed in groups of 5 under standard laboratory conditions under a 12 hr light: dark cycle, lights on at 0700 hr. Testing was carried out in the light phase.
(§2) Rats were randomly assigned to two treatment groups and treated with vehicle, n=20 (distilled water, i.p.) or Phencyclidine hydrochloride (PCP), n=100 (2 mg/kg, i.p. twice daily for 7-days). PCP was dissolved in distilled water. This was followed by a 7-day wash out period before the rats were tested following acute treatment with CBDV, risperidone or vehicle.
(§3) Risperidone (0.1 mg/kg) was dissolved in a minimum volume of acetic acid, made up to volume with distilled water and pH adjusted to 6 with 0.1M NaOH and administered via the i.p. route in a volume of 1 ml/kg, 60 min prior to testing.
(§4) CBDV at 2, 10 or 20 mg/kg was dissolved in 2:1:17 (Ethanol:Cremofor:Saline 0.9%) and administered via the i.p. route in a volume of 5 ml/kg, 60 min prior to testing.
Rats were allowed to habituate to the empty test box and the behavioural test room environment for 1h on day 1. Prior to behavioural testing on day 2 rats are given a further 3 min habituation.
Following the 3 min habituation period, the rats are given two 3 min trials (T1 and T2) which are separated by a 1 min inter-trial interval in the home cage during which the objects are changed. Behaviour in all trials was recorded on video for subsequent blind scoring.
In this trial, the animals are allowed to explore two identical objects (A1 and A2) for 3 min.
In this trial, the animals explore a familiar object (A) from T1 and a novel object (B) for 3 min. The familiar object presented during T2 is a duplicate of the object presented in T1 in order to avoid any olfactory trails.
The object exploration is defined by animals licking, sniffing or touching the object with the forepaws whilst sniffing, but not leaning against, turning around, standing or sitting on the object. The exploration time (s) of each object (A, B, familiar and novel) in each trial are recorded using two stopwatches and the following factors are calculated:
Discrimination index (DI), which is calculated as shown below: […]

[2] = test system: PCP-treated rats; settings: background statement; cited from earlier work
[3] = test system: PCP-treated rats; assay: Social interaction test, sub-chronic PCP model of schizophrenia; format: in vivo, rat
Description: as §1, §2, §3, §4
The social interaction test is performed in an open-field comprising a square box made of Plexiglas (52×52×31 cm) placed 27 cm above the floor on a moveable trolley. The floor of the box is white with black gridlines forming 9 identical squares on it. All other walls are black. A video camera connected to a video recorder and monitor is positioned above the box. The object used for the test consists of a heavy structure made of metal that cannot be displaced by the animals.
The rats were habituated to the test environment and arena prior to the test day. Habituation consists of placing all rats from one cage together in the empty test arena for one hour for three days including the day before the test day.
Pairs of rats, weight matched (15-20 g) and unfamiliar to each other, receiving either no treatment (n=70 “conspecific” rats) or different treatments (PCP and Vehicle; n=10 “tested” rats or PCP+Drug; n=50 “tested” rats) were placed in the test arena together for 10 min and behaviour assessed as described below.
An inanimate object such as an unopened drinks can is also placed in the centre of the arena to measure any differences in interaction of the test animal with an unfamiliar animal as opposed to an unfamiliar object. After each 10 minute trial, the object and arena are cleaned with 10% alcohol in an attempt to remove traces of any olfactory cues. All testing is carried out under standard room illumination levels (70 cd/m2).
Behaviour in both trials was recorded on video for subsequent blind scoring. A behavioural scoring software program (Hindsight, Scientific programming services) is used to score the following parameters: • Investigative sniffing behaviour: sniffing the conspecific's snout or parts of the body including the anogenital region; • Following: rat moves after the conspecific i.e. a vehicle treated rat of the same species, around the arena; • Avoidances: actively turning away when approached by the conspecific animal; • Investigation of object: exploration of object placed in centre of the arena; and • Locomotor activity is recorded by counting the total number of sectors (i.e. lines) crossed by the test rat. Results

## Cc1nc2n(c(=O)c1CCN1CCC(c3noc4cc(F)ccc34)CC1)CCCC2 [risperidone, reference compound]
[1]
  time spent investigating two identical objects in Trial 1 (FIG. 16A): no real preference
[2]
  PCP-induced deficit in the novel object recognition (NOR) test: can attenuate the deficit
[3]; risperidone 0.1 mg/kg i.p.
  PCP effects on social interaction (sniffing, following, avoiding) (FIG. 18): reverse these effects in a statistically significant manner
[3]; risperidone 0.1 mg/kg, time increased over PCP alone
  time spent following the other rat (FIG. 18B): not seen to be significant
